Test results from patent US20250332181A1, “ANTIBIOTIC METHODS AND COMPOSITIONS” (AI BIO DISCOVERY LLC, priority 2024, published 2025).
“Also recorded” adds a separate entry of the source.

Assays:
Pseudomonas aeruginosa = assay: Disk diffusion test on Pseudomonas aeruginosa; type: cell-based; settings: in combination with aztreonam
From the text: (§1) Applicants undertook two rounds of studies. […] When agar plating was required, both rounds of Applicants' studies were undertaken using similar disk diffusion methods on bacteria grown on agar substrates in Petri dishes. These methods conform to those prescribed by the Clinical & Laboratory Standards Institute (https://clsi.org). […]

Citrobacter freundii = assay: Disk diffusion test on Citrobacter freundii; type: cell-based
From the text: as §1

[1] = tested on: methicillin-resistant coagulase-negative Staphylococcus sps. (MRCoNS); assay: Disk diffusion test on MRCoNS; type: cell-based
From the text: (§2) Applicants undertook two rounds of studies. The results of the first round are illustrated in FIGS. 1A-9B and discussed in the related text. The results of the second round of studies are illustrated in FIGS. 10-23 and discussed in the related text. When agar plating was required, both rounds of Applicants' studies were undertaken using similar disk diffusion methods on bacteria grown on agar substrates in Petri dishes. These methods conform to those prescribed by the Clinical & Laboratory Standards Institute (https://clsi.org).
(§3) Disk Diffusion tests with beta-lactam antibiotics with and without the beta-lactamase inhibitor of FIG. 1A. Closely spaced disks disclose possible synergistic or inhibitory effects between the antibiotics and the compound of FIG. 1A (labeled in FIGS. 4A-9B as Compound C). The distances between disks show the effectiveness of the possible synergy. […] Each disk contains either the compound of FIG. 1A or an antibiotic (one of FIGS. 3A-3D), or the compound of […] and an antibiotic (one of FIGS. 3A-3D). When a disk with the compound of FIG. 1A is in proximity to a disk with an antibiotic both agents diffuse into the bacterial growth medium, allowing us to observe the area where both agents are present at the same time. These disk diffusion tests were evaluated with the following:
(§4) As noted above, Applicants' studies were undertaken using similar disk diffusion methods on bacteria grown on agar substrates in Petri dishes. These methods conform to those prescribed by the Clinical & Laboratory Standards Institute (https://clsi.org).

Klebsiella pneumoniae = assay: Disk diffusion test on Klebsiella pneumoniae; type: cell-based
From the text: as §2, §3, §4

[2] = tested on: MSSA (methicillin-sensitive Staphylococcus aureus); assay: Disk diffusion test on Staphylococcus aureus (MSSA); type: cell-based
From the text: as §1

Acinetobacter baumannii = assay: Disk diffusion test on Acinetobacter baumannii; type: cell-based
From the text: as §1

Escherichia coli = assay: Disk diffusion test on Escherichia coli; type: cell-based
From the text: as §1

[3] = tested on: complicated urinary tract infection, including acute pyelonephritis; assay: Intravenous cefepime plus 5-Boronothiophene-2-carboxylic acid in patients with complicated urinary tract infection; type: in vivo, adult patients; settings: cefepime 2.0 g + 5-Boronothiophene-2-carboxylic acid 0.5 g, intravenously over two hours every 8 hours, 7 days
Method: According to the disclosed invention, requisite amounts of both cefepime and 5-Boronothiophene-2-carboxylic acid are dissolved. Particularly, 2.0 g of cefepime are dissolved in sterile normal saline (0.9% sodium chloride) solution and 0.5 g of 5-Boronothiophene-2-carboxylic acid are dissolved in DMSO. Dissolution may be accelerated by use of an alcohol such as ethyl alcohol. Thereafter, a 2.5 g dose of a combination of cefepime (2.0 g) and 5-Boronothiophene-2-carboxylic acid (0.5 g) together with sterile normal saline (0.9% sodium chloride) as a diluent is administered to randomly assigned adult patients challenged with complicated urinary tract infection, including acute pyelonephritis, over a two-hour period with the dose being administered intravenously every 8 hours. A 1.0 g dose of a placebo is administered over 30-minute periods, every 8 hours also intravenously. The administration may be carried out over a period of 7 days.

[4] = in combination with ceftazidime
[5] = in combination with ceftriaxone

Question: How did the “effectiveness of the combination with antibiotic” value (“effectiveness of the combination” below) (Pseudomonas aeruginosa) turn out when `O=C(O)c1ccc(B(O)O)s1` [Compound C, 2-carboxythiophene-5-boronic acid] was run?
Answer: The value was “enhanced effectiveness”.

Question: What about the “effectiveness of the combination” value (Citrobacter freundii; [4]) of the same molecule?
Answer: The value was “enhanced effectiveness”.

Question: What about the “effectiveness of the combination” value (Citrobacter freundii; [5]) of the same molecule?
Answer: Its value is “enhanced effectiveness”.

Question: And the “effectiveness of the combination” value (Citrobacter freundii; in combination with meropenem)?
Answer: The value was “enhanced effectiveness”.

Question: And the “effect on cefoxitin activity” value ([1]; cefoxitin 30 μg + Compound C 15 μg)?
Answer: The value was “does not enhance cefoxitin activity”.

Question: And the “effect on cefoxitin activity” value ([1]; cefoxitin 30 μg + Compound C 150 μg)?
Answer: Its value is “inhibits cefoxitin antibiotic activity”.

Question: And the “effectiveness of the combination” value ([1]; in combination with ampicillin)?
Answer: Its value is “enhanced effectiveness”.

Question: And the “effectiveness of the combination” value ([1]; in combination with penicillin G (second round))?
Answer: The value was “enhanced effectiveness”.

Question: And the “activation of the antibiotic action of penicillin G” value ([1]; penicillin G 10 μg + Compound C 15 μg)?
Answer: Its value is “strongly enables; also recorded: activates the antibiotic action of penicillin G”.

Question: What about the “activation of the antibiotic action of penicillin G” value ([1]; penicillin G 10 μg + Compound C 150 μg) of the same molecule?
Answer: Its value is “further activate penicillin G”.

Question: What about the “antibacterial activity of the agent by itself” value ([1]; single agent disk, penicillin G 10 μg, cefoxitin 30 μg, Compound C 15 μg) of the same molecule?
Answer: Its value is “no antibacterial activity”.

Question: And the “enhancement of the action of ceftazidime” value (Klebsiella pneumoniae; ceftazidime 30 μg + Compound C 15 μg)?
Answer: The value was “very strongly enhances; also recorded: strongly enhances”.

Question: What about the “effectiveness of the combination” value (Klebsiella pneumoniae; in combination with ceftazidime (second round)) of the same molecule?
Answer: The value was “enhanced effectiveness”.

Question: What about the “effectiveness of the combination” value (Klebsiella pneumoniae; [5]) of the same molecule?
Answer: Its value is “enhanced effectiveness”.

Question: What about the “effectiveness of the combination” value (Klebsiella pneumoniae; in combination with meropenem (second round)) of the same molecule?
Answer: Its value is “enhanced effectiveness”.

Question: And the “effect on the activity of meropenem” value (Klebsiella pneumoniae; meropenem 10 μg + Compound C 15 μg)?
Answer: Its value is “essentially no effect”.

Question: And the “effect on the activity of meropenem” value (Klebsiella pneumoniae; meropenem 10 μg + Compound C 150 μg)?
Answer: Its value is “only weakly enhances”.

Question: And the “antibacterial activity of the agent by itself” value (Klebsiella pneumoniae; single agent disk, ceftazidime 30 μg, meropenem 10 μg, Compound C 15 μg)?
Answer: Its value is “no activity on its own”.

Question: And the “effectiveness of the combination” value ([2]; in combination with ampicillin)?
Answer: The value was “enhanced effectiveness”.

Question: What about the “effectiveness of the combination” value ([2]; in combination with penicillin G) of the same molecule?
Answer: The value was “enhanced effectiveness”.

Question: What about the “effectiveness of the combination” value (Acinetobacter baumannii; [4]) of the same molecule?
Answer: The value was “enhanced effectiveness”.

Question: And the “effectiveness of the combination” value (Acinetobacter baumannii; in combination with meropenem)?
Answer: Its value is “enhanced effectiveness”.

Question: And the “effectiveness of the combination” value (Escherichia coli; in combination with amoxycillin)?
Answer: The value was “enhanced effectiveness”.

Question: What about the “effectiveness of the combination” value (Escherichia coli; [4]) of the same molecule?
Answer: Its value is “enhanced effectiveness”.

Question: And the “effectiveness of the combination” value (Escherichia coli; [5])?
Answer: The value was “enhanced effectiveness”.

Question: And the “effectiveness of the combination” value (Escherichia coli; in combination with meropenem)?
Answer: The value was “enhanced effectiveness”.

Question: What about the “microbiologic and clinical success” value [3] of the same molecule?
Answer: Its value is “both microbiologic and clinical success”.
